From patent publication US20140120087A1, “TRIAZOLOPYRIDINES” (BAYER INTELLECTUAL PROPERTY GMBH, priority 2011, published 2014)

Key:
[1] = target: T1, Mps-1 kinase (Homo sapiens, UniProt P33981); assay: Mps-1 kinase assay with 10 μM ATP (TR-FRET)
T1 sequence (P33981 1-857): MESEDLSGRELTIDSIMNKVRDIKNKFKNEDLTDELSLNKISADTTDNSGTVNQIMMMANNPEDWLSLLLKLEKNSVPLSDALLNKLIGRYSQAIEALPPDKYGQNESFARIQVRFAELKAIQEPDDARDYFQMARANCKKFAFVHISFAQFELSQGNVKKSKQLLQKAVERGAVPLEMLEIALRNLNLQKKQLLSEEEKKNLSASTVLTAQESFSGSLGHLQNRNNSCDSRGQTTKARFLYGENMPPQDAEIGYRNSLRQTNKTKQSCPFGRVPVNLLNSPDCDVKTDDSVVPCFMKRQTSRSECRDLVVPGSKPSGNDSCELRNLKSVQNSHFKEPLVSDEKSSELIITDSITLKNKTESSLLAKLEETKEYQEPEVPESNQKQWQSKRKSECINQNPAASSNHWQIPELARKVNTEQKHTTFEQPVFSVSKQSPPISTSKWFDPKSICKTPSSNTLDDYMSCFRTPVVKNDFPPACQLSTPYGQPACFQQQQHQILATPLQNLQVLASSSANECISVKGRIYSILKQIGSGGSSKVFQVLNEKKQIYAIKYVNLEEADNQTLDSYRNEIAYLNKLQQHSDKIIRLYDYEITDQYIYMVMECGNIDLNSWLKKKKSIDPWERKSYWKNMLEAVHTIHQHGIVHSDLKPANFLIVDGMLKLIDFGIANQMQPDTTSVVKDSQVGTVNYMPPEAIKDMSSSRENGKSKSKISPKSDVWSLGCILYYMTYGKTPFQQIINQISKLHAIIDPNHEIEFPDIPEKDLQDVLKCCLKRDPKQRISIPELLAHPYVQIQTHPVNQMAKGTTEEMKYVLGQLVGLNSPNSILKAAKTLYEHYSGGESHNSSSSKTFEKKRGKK

[2] = target: T1, Mps-1 kinase; assay: Mps-1 kinase assay with 2 mM ATP (TR-FRET)

## COc1cc(S(C)(=O)=O)ccc1Nc1nc2ccc(-c3ccc(C(=O)NCc4ccc(Cl)cc4)cc3)cn2n1 [Example 12.73, N-(4-chlorobenzyl)-4-(2-{[2-methoxy-4-(methylsulfonyl)-phenyl]amino}[1,2,4]triazolo [1,5-a]pyridin-6-yl)-benzamide]
[1]
  IC50: ≤ 1 nM
[2]
  IC50: 16 nM

## COc1cc(S(C)(=O)=O)ccc1Nc1nc2ccc(-c3ccc(NC(=O)Cc4ccc(F)c(C)c4)cc3)cn2n1 [Example 12.40, 2-(4-fluoro-3-methylphenyl)-N-[4-(2-{[2-methoxy-4-(methylsulfonyl)phenyl]-amino}[1,2,4]triazolo[1,5-a]pyridin-6-yl)phenyl]-acetamide]
[1]
  IC50: ≤ 1 nM
[2]
  IC50: 9.9 nM

## COc1cc(C(C)(C)O)ccc1Nc1nc2ccc(-c3ccc(C(=O)NCc4ccc(F)cc4)cc3)cn2n1 [Example 12.54, N-(4-fluorobenzyl)-4-(2-{[4-(2-hydroxypropan-2-yl)-2-methoxyphenyl]amino}-[1,2,4]triazolo[1,5-a]pyridin-6-yl)benzamide]
[1]
  IC50: ≤ 1 nM
[2]
  IC50: 1.1 nM

## COCCNC(=O)c1ccc(Nc2nc3ccc(-c4ccc(NC(=O)Cc5ccc(F)cc5)cc4)cn3n2)c(OC)c1 [Example 12.01, 4-{[6-(4-{[(4-fluorophenyl)-acetyl]amino}phenyl)[1,2,4]triazolo[1,5-a]pyridin-2-yl]amino}-3-methoxy-N-(2-methoxyethyl)benzamide]
[1]
  IC50: ≤ 1 nM
[2]
  IC50: ≤ 1 nM

## CN(C)CCNC(=O)c1ccc(Nc2nc3ccc(-c4ccc(C(=O)NCc5ccc(F)cc5)cc4)cn3n2)c(OCC(F)(F)F)c1 [Example 12.58, N-[2-(dimethylamino)ethyl]-4-[(6-{4-[(4-fluorobenzyl)-carbamoyl]phenyl}[1,2,4]triazolo [1,5-a]pyridin-2-yl)-amino]-3-(2,2,2-trifluoro-ethoxy)benzamide]
[1]
  IC50: ≤ 1 nM
[2]
  IC50: ≤ 1 nM

## CS(=O)(=O)c1ccc(Nc2nc3ccc(-c4ccc(NC(=O)Cc5ccc(F)cc5)cc4)cn3n2)c(OC(F)F)c1 [Example 01.35, N-[4-(2-{[2-(difluoromethoxy)-4-(methylsulfonyl)phenyl]amino}[1,2,4]-triazolo[1,5-α]pyridin-6-yl)phenyl]-2-(4-fluorophenyl)acetamide]
[1]
  IC50: ≤ 1 nM
[2]
  IC50: 1.2 nM

## C[S@@+]([O-])c1ccc(Nc2nc3ccc(-c4ccc(NC(=O)Cc5ccc(F)cc5)cc4)cn3n2)c(OCC(F)(F)F)c1 (stereo in doubt) [Example 12.24, 2-(4-fluorophenyl)-N-[4-(2-{[4-(methylsulfinyl)-2-(2,2,2-trifluoroethoxy)-phenyl]amino}[1,2,4]-triazolo[1,5-a]pyridin-6-yl)phenyl]acetamide]
[1]
  IC50: ≤ 1 nM
[2]
  IC50: ≤ 1 nM

## Cc1cc(-c2ccc3nc(Nc4ccc(S(C)(=O)=O)cc4OCC(F)(F)F)nn3c2)ccc1C(=O)NCc1ccc(F)cc1 [Example 04.2, N-(4-fluorobenzyl)-2-methyl-4-(2-{[4-(methylsulfonyl)-2-(2,2,2-trifluoro-ethoxy)phenyl]amino}[1,2,4]triazolo[, 5-α]pyridin-6-yl)benzamide]
[1]
  IC50: ≤ 1 nM
[2]
  IC50: 15 nM

## CS(=O)(=O)CCNC(=O)c1ccc(Nc2nc3ccc(-c4ccc(NC(=O)Cc5ccc(F)cc5)cc4)cn3n2)c(OCC(F)(F)F)c1 [Example 12.21, 4-{[6-(4-{[(4-fluorophenyl)-acetyl]amino}phenyl)[1,2,4]triazolo[1,5-a]pyridin-2-yl]amino}-N-[2-(methyl-sulfonyl)ethyl]-3-(2,2,2-trifluoroethoxy)benzamide]
[1]
  IC50: ≤ 1 nM
[2]
  IC50: ≤ 1 nM

## COc1cc(C(=O)NCC(F)F)ccc1Nc1nc2ccc(-c3ccc(NC(=O)Cc4ccc(F)cc4)cc3)cn2n1 [Example 12.07, N-(2,2-difluoroethyl)-4-{[6-(4-{[(4-fluorophenyl)-acetyl]amino}phenyl)[1,2,4]triazolo[1,5-a]pyridin-2-yl]amino}-3-methoxy-benzamide]
[1]
  IC50: ≤ 1 nM
[2]
  IC50: ≤ 1 nM

## O=C(NCc1ccc(F)cc1)c1ccc(-c2ccc3nc(Nc4ccc(F)cc4OC(F)F)nn3c2)cc1 [Example 12.63, 4-(2-{[2-(difluoromethoxy)-4-fluorophenyl]amino}-[1,2,4]triazolo[1,5-a]pyridin-6-yl)-N-(4-fluoro-benzyl)benzamide]
[1]
  IC50: ≤ 1 nM
[2]
  IC50: 26 nM

## COc1cc(C(=O)NCCS(C)(=O)=O)ccc1Nc1nc2ccc(-c3ccc(NC(=O)Cc4ccc(F)cc4)cc3)cn2n1 [Example 12.03]
[1]
  IC50: ≤ 1 nM
[2]
  IC50: ≤ 1 nM

## COc1cc(C(=O)NCC(F)F)ccc1Nc1nc2ccc(-c3ccc(C(=O)NCc4ccc(F)cc4)cc3)cn2n1 [Example 12.47, N-(2,2-difluoroethyl)-4-[(6-{4-[(4-fluorobenzyl)-carbamoyl]phenyl}[1,2,4]triazolo [1,5-a]pyridin-2-yl)amino]-3-methoxy-benzamide]
[1]
  IC50: ≤ 1 nM
[2]
  IC50: 2.4 nM

## CCNC(=O)c1ccc(Nc2nc3ccc(-c4ccc(C(=O)NCc5ccc(F)cc5)cc4)cn3n2)c(C)c1 [Example 12.64, N-ethyl-4-[(6-{4-[(4-fluoro-benzyl)carbamoyl]phenyl}-[1,2,4]triazolo[1,5-a]pyridin-2-yl)amino]-3-methyl-benzamide]
[1]
  IC50: ≤ 1 nM
[2]
  IC50: 1.6 nM

## CCOc1cc(S(C)(=O)=O)ccc1Nc1nc2ccc(-c3ccc(NC(=O)Cc4ccc(F)cc4)cc3)cn2n1 [Example 01.32, N-[4-(2-{[2-ethoxy-4-(methylsulfonyl)phenyl]amino}[1,2,4]triazolo[1,5-α]-pyridin-6-yl)phenyl]-2-(4-fluorophenyl)acetamide]
[1]
  IC50: ≤ 1 nM
[2]
  IC50: ≤ 1 nM

## COc1cc(S(C)(=N)=O)ccc1Nc1nc2ccc(-c3ccc(C(=O)NCc4ccc(F)cc4)cc3)cn2n1 (stereo not drawn) [Example 12.83, N-(4-fluorobenzyl)-4-(2-{[2-methoxy-4-(S-methylsulfonimidoyl)phenyl]-amino}[1,2,4]triazolo[1,5-α]pyridin-6-yl)benzamide]
[1]
  IC50: ≤ 1 nM
[2]
  IC50: 1.8 nM

## Cc1cc(C(N)=O)ccc1Nc1nc2ccc(-c3ccc(C(=O)NCc4ccc(F)cc4)cc3)cn2n1 [Example 12.65, 4-[(6-{4-[(4-fluorobenzyl)-carbamoyl]phenyl}[1,2,4]triazolo [1,5-a]pyridin-2-yl)-amino]-3-methylbenzamide]
[1]
  IC50: ≤ 1 nM
[2]
  IC50: ≤ 1 nM

## COc1cc(C(=O)NCC(F)(F)F)ccc1Nc1nc2ccc(-c3ccc(NC(=O)Cc4ccc(F)cc4)cc3)cn2n1 [Example 01.31, 4-{[6-(4-{[(4-fluorophenyl)acetyl]amino}phenyl)[1,2,4]triazolo[1,5-α]-pyridin-2-yl]amino}-3-methoxy-N-(2,2,2-trifluoroethyl)benzamide]
[1]
  IC50: ≤ 1 nM
[2]
  IC50: 5 nM

## COc1cc(C(=O)NCCN(C)C)ccc1Nc1nc2ccc(-c3ccc(NC(=O)Cc4ccc(F)cc4)cc3)cn2n1 [Example 12.10, N-[2-(dimethylamino)ethyl]-4-{[6-(4-{[(4-fluorophenyl)-acetyl]amino}phenyl)[1,2,4]triazolo[1,5-a]pyridin-2-yl]amino}-3-methoxy-benzamide]
[1]
  IC50: ≤ 1 nM
[2]
  IC50: ≤ 1 nM

## Cc1ccc(CNC(=O)c2ccc(-c3ccc4nc(Nc5ccc([S@@+](C)[O-])cc5C)nn4c3)cc2)cc1 (stereo in doubt) [Example 12.78, N-(4-methylbenzyl)-4-(2-{[2-methyl-4-(methylsulfinyl)-phenyl]amino}[1,2,4]triazolo [1,5-a]pyridin-6-yl)-benzamide]
[1]
  IC50: ≤ 1 nM
[2]
  IC50: 7.6 nM

## COCCNC(=O)c1ccc(Nc2nc3ccc(-c4ccc(C(=O)NCc5ccc(F)cc5)cc4)cn3n2)c(OC)c1 [Example 12.44, 4-[(6-{4-[(4-fluorobenzyl)-carbamoyl]phenyl}[1,2,4]triazolo [1,5-a]pyridin-2-yl)-amino]-3-methoxy-N-(2-methoxyethyl)benzamide]
[1]
  IC50: ≤ 1 nM
[2]
  IC50: 1.6 nM

## COc1cc(CO)ccc1Nc1nc2ccc(-c3ccc(C(=O)NCc4ccc(F)cc4)cc3)cn2n1 [Example 12.85, N-(4-fluorobenzyl)-4-(2-{[4-(hydroxymethyl)-2-methoxyphenyl]amino}-[1,2,4]triazolo[1,5-α]pyridin-6-yl)benzamide]
[1]
  IC50: ≤ 1 nM
[2]
  IC50: 2.2 nM

## CCN(Cc1ccc(Nc2nc3ccc(-c4ccc(NC(=O)Cc5ccc(F)cc5)cc4)cn3n2)c(OC)c1)C(C)(C)CO [Example 12.16, N-(4-{2-[(4-{[ethyl(1-hydroxy-2-methylpropan-2-yl)amino]methyl}-2-methoxyphenyl)amino]-[1,2,4]triazolo[1,5-a]pyridin-6-yl}phenyl)-2-(4-fluorophenyl)acetamide]
[1]
  IC50: ≤ 1 nM
[2]
  IC50: ≤ 1 nM

## CNC(=O)c1ccc(Nc2nc3ccc(-c4ccc(NC(=O)Cc5ccc(F)cc5)cc4)cn3n2)c(OC)c1 [Example 01.30, 4-{[6-(4-{[(4-fluorophenyl)acetyl]amino}phenyl)[1,2,4]triazolo[1,5-α]-pyridin-2-yl]amino}-3-methoxy-N-methylbenzamide]
[1]
  IC50: ≤ 1 nM
[2]
  IC50: ≤ 1 nM
